The values below come from US5206232A, “Fungicidal imidazole complexes” (priority 1990, dated 1993).

Data set [1] deals with powdery mildew. In words: Fungicidal activity against powdery mildew on inoculated cucumber plants (disease index). The data set is classed as in vivo, Sphaerotheca fuliginia. Conditions: cucumbers, letters in the cell = significance groups (P = 0.05). As for the experimental part:
Cucumbers sensitive to powdery mildew were sprouted in trays and then transferred to pots of 16 cm diameter, two plants per pot. They were kept in a hot-house at 18° C.-25° C. at a relative humidity of 60%-70%. The cucumber plants were contaminated with powdery mildew collected from pumpkin leaves by passing the contaminated leaf over the leaves of the plants to be tested and the plants then sprayed with water. First treatment was with the first appearance of the disease, by spraying until dripping. All treatments were at a concentration of 0.03%, except for the commercial Myclobutanal (a systemic fungicide of Rohm and Haas Co.), where a concentration of 0.006% was used. The status of the disease was determined by three different people. The experiment was conducted in blocks, at random, with repetitions. Four blocks of four repetitions of ten treatments (total 160 pots) at three evaluation periods.

Data set [2] concerns coffee berry disease. The experiment in a line: Activity against coffee berry disease (inhibition of sporulation on colonized branch sections). The data set is classed as in vivo, Colletotrichum coffeanum. Conditions: for Per Cent Active Ingredient for 80% Inhibition: 80% inhibition of sporulation, by linear regression of dose response curves, three days incubation. As for the experimental part:
The zinc complex of prochloraz was tested for its activity against coffee berry disease as follows:
Approximately 3.5 mm sections of colonized branches are washed in a solution of Teepol or similar wetting agent to remove any initial spore load. Sections are laid on moistened cellosine wadding in plastic boxes, 12 sections per box. Three boxes are sprayed with each concentration of the candidate material, closed and incubated for three days. After incubation the spores are removed by vigorous shaking of each of the 12 twigs in 10 ml water and are counted, using a haemocytometer slide. The sections of the branch are measured and their volume taken by displacement. The parameters measured were concentration of the formulation and expressed as percent active ingredient (A.I.) and percent inhibition of sporulation. The inhibition of sporulation was expressed in relation to the sporulation of unsprayed control and folpet as the standard fungicide. Each determination was done in triplicate and repeated at least three times. The dose response curves were analyzed by linear regression and the different formulations were compared at the 80% inhibition point.

The subject of data set [3] is crops. Conditions: free, non-complexed prochloraz vs metal complexes; susceptible crops; cited from earlier work.
The mark [4] stands for this setting: 0.006% spray (commercial standard), key 0 = clean to 5 = over 50% sick.
[5] abbreviates: 0.03% spray, key 0 = clean, 1 = 10%-20% sick, 2 = 20%-30%, 3 = 30%-40%, 4 = 40%-50%, 5 = over 50% sick.

For `CCCCC(C#N)(Cn1cncn1)c1ccc(Cl)cc1` (racemic) [Myclobutanol, reference compound], in data set [1] (setting [4]), the “Disease Index 7 Days After Treatment” value stood at 1.34 and the “Disease Index 14 Days After Treatment” value was determined as 0.81.
Consider `O=C1c2ccccc2C(=O)N1SC(Cl)(Cl)Cl` [Folpet, reference compound], for which the “Per Cent Active Ingredient for 80% Inhibition” value in data set [2] is recorded as 0.62 Per Cent Active Ingredient.
In the case of `CCCN(CCOc1c(Cl)cc(Cl)cc1Cl)C(=O)n1ccnc1.CCCN(CCOc1c(Cl)cc(Cl)cc1Cl)C(=O)n1ccnc1.[Cl][Sn][Cl]` [SnCl2 complex of Prochloraz, Bis-[1-{N-propyl-N-2-(2,4,6-trichlorophenoxy)-ethyl-carbamoyl}-imidazole]-tin(II) chloride complex], the “Disease Index 14 Days After Treatment” value in data set [1] (setting [5]) was found to be 0.78.
As to `CCCN(CCOc1c(Cl)cc(Cl)cc1Cl)C(=O)n1ccnc1.CCCN(CCOc1c(Cl)cc(Cl)cc1Cl)C(=O)n1ccnc1.[Cl][Zn][Cl]` [ZnCl2 complex of Prochloraz, Bis-[1-{N-propyl-N-2-(2,4,6-trichlorophenoxy)-ethyl-carbamoyl}-imidazole]-zinc chloride complex], in data set [1] (setting [5]), the “Disease Index 7 Days After Treatment” value worked out at 1.63 and the “Disease Index 14 Days After Treatment” value is listed as 0.94. Also, the “Per Cent Active Ingredient for 80% Inhibition” value in data set [2] was 0.09 Per Cent Active Ingredient. The “activity against coffee berry disease (in words)” value in data set [2] (especially as compared to known commercial metal complexes) is “very good activity”. The “activity against coffee berry disease compared to commercial "Octave"” value in data set [2] (relative to Octave, at 80% inhibition point) is “more than two times greater”.
Regarding `CCCN(CCOc1c(Cl)cc(Cl)cc1Cl)C(=O)n1ccnc1` [prochloraz, 1-[N-propyl-N-2-(2,4,6-trichlorophenoxy)-ethyl-carbamoyl]-imidazole], in data set [3], the phytotoxicity result was “phytotoxic to some crops”.
Take “Bis-[1-{N-propyl-N-2-(2,4,6-trichlorophenoxy)-ethyl-carbamoyl}-imidazole]-cobalt (II) chloride complex [CoCl2 complex of Prochloraz]”: in data set [1] (setting [5]), the “Disease Index 7 Days After Treatment” value was determined as 2.06 and the “Disease Index 14 Days After Treatment” value came to 1.38.
